Molecular target: T1, hCD38 Enzyme (Homo sapiens, UniProt P28907)
T1 construct: purchased Sino Biological Inc 10818-H08H
T1 sequence (P28907 43-300 limits assumed): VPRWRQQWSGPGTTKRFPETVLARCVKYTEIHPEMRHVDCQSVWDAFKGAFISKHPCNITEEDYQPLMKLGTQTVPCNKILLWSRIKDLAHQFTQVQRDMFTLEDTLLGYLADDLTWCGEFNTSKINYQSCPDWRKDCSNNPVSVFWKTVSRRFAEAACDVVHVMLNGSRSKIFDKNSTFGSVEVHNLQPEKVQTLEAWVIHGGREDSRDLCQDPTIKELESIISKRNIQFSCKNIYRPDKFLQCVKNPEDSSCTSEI
Test: CD38 hydrolase enzymatic assay
Format: biochemical
Conditions: rhCD38, ε-NAD substrate, 25° C., point reading time 20 mins; read-out: hCD38 Enzyme inhibition IC50
Experimental: Also, a blank sample was prepared with 50 μl of sucrose buffer and no test compounds.
The dynamic reading was performed at 25° C. with excitation light of 300 nm and emission light of 410 nm on the enzyme marker by contacting the above-prepared rhCD38 enzyme working fluid and the above-prepared solutions of the test compounds disclosed herein or the solution of the control. The readings were recorded for a total of 1 hour, and the data were analyzed with the point reading time of 20 mins.
Fluorescence was recorded by a microplate reader. Individual excel files containing fluorescence data were exported and the results were plotted against various drug concentrations and analyzed in GraphPad Prism 7.0 for concentration curve generation.

Row | SMILES | IC50
1 | CO[C@H]1CC[C@H](NC(=O)c2cc(-n3ccnn3)cc3cc[nH]c23)CC1 [compound 54, N-((1r,4r)-4-methoxycyclohexyl)-5-(1H-1,2,3-triazol-1-yl)-1H-indole-7-carboxamide] | 6850 nM
2 | O=C(Nc1cc(F)cc(N2CC[C@H](O)C2)c1)c1cc(C(F)(F)F)nc(-n2ccnc2)n1 [compound 178, (S)-N-(3-fluoro-5-(3-hydroxypyrrolidin-1-yl)phenyl)-2-(1H-imidazol-1-yl)-6-(trifluoromethyl) pyrimidine-4-carboxamide] | 17.3 nM
3 | N#Cc1cc(C(=O)Nc2cccc(F)c2)nc(-n2ccnc2)n1 [compound 185, 6-cyano-N-(3-fluorophenyl)-2-(1H-imidazol-1-yl) pyrimidine-4-carboxamide] | 2 nM
4 | CC(C)NC(=O)c1cncc(-n2ccnc2)n1 [compound 31, 6-(1H-imidazol-1-yl)-N-isopropylpyrazine-2-carboxamide] | 394 nM
5 | Cc1nccn1-c1cncc(C(=O)NC2CCCCC2)n1 [compound 80, N-cyclohexyl-6-(2-methyl-1H-imidazol-1-yl)pyrazine-2-carboxamide] | > 10000 nM
6 | COC(C)(C)c1cc(F)cc(NC(=O)c2cc(C(F)(F)F)nc(-n3ccnc3)n2)c1 [compound 179, N-(3-fluoro-5-(2-methoxypropan-2-yl)phenyl)-2-(1H-imidazol-1-yl)-6-(trifluoromethyl) pyrimidine-4-carboxamide] | 586 nM
7 | N#Cc1ccc(NC(=O)c2cc(C(F)(F)F)nc(-n3ccnc3)n2)cn1 [compound 164, N-(6-cyanopyridin-3-yl)-2-(1H-imidazol-1-yl)-6-(trifluoromethyl) pyrimidine-4-carboxamide] | 4 nM
8 | CC(C)(O)c1ccc(NC(=O)c2cc(C(F)(F)F)nc(-n3ccnc3)n2)cc1F [Compound 180] | 11 nM
9 | O=C(Nc1ccccc1)c1ccnc(-n2ccnc2)n1 [compound 82, 2-(1H-imidazol-1-yl)-N-phenylpyrimidine-4-carboxamide] | 3 nM
10 | O=C(NC1CCCCC1)c1cccc(-n2ccnc2)n1 [compound 49, N-cyclohexyl-6-(1H-imidazol-1-yl)picolinamide] | 70 nM
11 | O=C(Nc1cc(F)cc(N2CCNCC2)c1)c1cc(C(F)(F)F)nc(-n2ccnc2)n1 [compound 175, N-(3-fluoro-5-(piperazin-1-yl)phenyl)-2-(1H-imidazol-1-yl)-6-(trifluoromethyl) pyrimidine-4-carboxamide] | 68 nM
12 | O=C(NC1CCNCC1)c1cncc(-n2ccnc2)n1 [compound 33, 6-(1H-imidazol-1-yl)-N-(piperidin-4-yl)pyrazine-2-carboxamide] | 4080 nM
13 | Nc1ccc(-n2ccnc2)nc1C(=O)NC1CCCCC1 [compound 61, 3-amino-N-cyclohexyl-6-(1H-imidazol-1-yl)picolinamide] | 15 nM
14 | CO[C@H]1CC[C@H](NC(=O)c2nc(-n3ccnc3)cnc2O)CC1 [compound 67, 3-hydroxy-6-(1H-imidazol-1-yl)-N-((1r,4r)-4-methoxycyclohexyl)pyrazine-2-carboxamide] | > 10000 nM
15 | C[C@H]1CC[C@H](NC(=O)c2cc(N3CCCCC3)nc(-n3ccnc3)n2)CC1 [compound 147, 2-(1H-imidazol-1-yl)-N-((1r,4r)-4-methylcyclohexyl)-6-(piperidin-1-yl)pyrimidine-4-carboxamide] | 70 nM
16 | CO[C@H]1CC[C@H](NC(=O)c2nc(-n3ccnc3)ccc2O)CC1 [compound 71, 3-hydroxy-6-(1H-imidazol-1-yl)-N-((1r,4r)-4-methoxycyclohexyl) picolinamide] | 73 nM
17 | O=C(NC1CCCCC1)c1cncc(-n2ccnc2)n1 [compound 30, N-cyclohexyl-6-(1H-imidazol-1-yl)pyrazine-2-carboxamide] | 42 nM
18 | O=C(Nc1cncnc1)c1cc(C(F)(F)F)cc(-n2ccnc2)n1 [compound 192, 6-(1H-imidazol-1-yl)-N-(pyrimidin-5-yl)-4-(trifluoromethyl) picolinamide] | 6.1 nM
19 | Nc1ncc(-n2ccnc2)nc1C(=O)NC1CCCCC1 [compound 42, 3-amino-N-cyclohexyl-6-(1H-imidazol-1-yl)pyrazine-2-carboxamide] | 11 nM
20 | COCCO[C@H]1CC[C@H](NC(=O)c2cc(C(F)(F)F)nc(-n3ccnc3)n2)CC1 [compound 157, 2-(1H-imidazol-1-yl)-N-((1r,4r)-4-(2-methoxyethoxy)cyclohexyl)-6-(trifluoromethyl) pyrimidine-4-carboxamide] | 49 nM
21 | C[C@H]1CC[C@H](NC(=O)c2cc(C(F)(F)F)cc(-n3ccnc3)n2)CC1 [compound 158, 6-(1H-imidazol-1-yl)-N-((1r,4r)-4-methylcyclohexyl)-4-(trifluoromethyl) picolinamide] | 37 nM

The next lines start with the values.

Row | IC50 | SMILES
22 | 8 nM | CO[C@H]1CC[C@H](NC(=O)c2cc(-n3ccnc3)nc(N)n2)CC1 [compound 21, 2-amino-6-(1H-imidazol-1-yl)-N-((1r,4r)-4-methoxycyclohexyl)pyrimidine-4-carboxamide]
23 | > 10000 nM | CO[C@H]1CC[C@H](NC(=O)c2cc(-c3cncs3)ccc2N)CC1 [compound 7, 2-amino-N-((1r,4r)-4-methoxycyclohexyl)-5-(thiazol-5-yl) benzamide]
24 | 92 nM | O=C(NC1CCOCC1)c1cc(C(F)(F)F)nc(-n2ccnc2)n1 [compound 163, 2-(1H-imidazol-1-yl)-N-(tetrahydro-2H-pyran-4-yl)-6-(trifluoromethyl) pyrimidine-4-carboxamide]
25 | 9 nM | CO[C@H]1CC[C@H](NC(=O)c2cc(C)nc(-n3ccnc3)n2)CC1 [compound 99, 2-(1H-imidazol-1-yl)-N-((1r,4r)-4-methoxycyclohexyl)-6-methylpyrimidine-4-carboxamide]
26 | 20 nM | O=C(Nc1cc(F)cc(N2CCOCC2)c1)c1cc(C(F)(F)F)nc(-n2ccnc2)n1 [compound 176, N-(3-fluoro-5-morpholinophenyl)-2-(1H-imidazol-1-yl)-6-(trifluoromethyl) pyrimidine-4-carboxamide]
27 | 225 nM | CC(NC(=O)c1cncc(-n2ccnc2)n1)C1CCCCC1 (centres unmarked) [compound 39, N-(1-cyclohexylethyl)-6-(1H-imidazol-1-yl)pyrazine-2-carboxamide]
28 | 4040 nM | COc1ccc(C(=O)N[C@H]2CC[C@H](OC)CC2)nc1-n1ccnc1 [compound 74, 6-(1H-imidazol-1-yl)-5-methoxy-N-((1r,4r)-4-methoxycyclohexyl) picolinamide]
29 | 12 nM | N#Cc1cc(C(=O)Nc2cncnc2)nc(-n2ccnc2)n1 [compound 189, 6-cyano-2-(1H-imidazol-1-yl)-N-(pyrimidin-5-yl)pyrimidine-4-carboxamide]
30 | 8.2 nM | O=C(Nc1ccc(F)cc1)c1cc(C(F)(F)F)nc(-n2ccnc2)n1 [compound 172, N-(4-fluorophenyl)-2-(1H-imidazol-1-yl)-6-(trifluoromethyl) pyrimidine-4-carboxamide]
31 | 18 nM | CO[C@H]1CC[C@H](NC(=O)c2cc(C#N)nc(-n3ccnc3)n2)CC1 [compound 106, 6-cyano-2-(1H-imidazol-1-yl)-N-((1r,4r)-4-methoxycyclohexyl)pyrimidine-4-carboxamide]
32 | 1030 nM | CC(C)(C)NC(=O)c1cc(C(F)(F)F)nc(-n2ccnc2)n1 [compound 141, N-(tert-butyl)-2-(1H-imidazol-1-yl)-6-(trifluoromethyl) pyrimidine-4-carboxamide]
